Laboratory results from patent US10624875B2, “Methods and compositions for treating schizophrenia” (The Johns Hopkins University, priority 2012, dated 2020).

Columns and labels:
Type in all cases: in vivo, human
DG/CA3 = assay: fMRI activity during explicit 3-alternative forced choice task, DG/CA3; settings: aMCI subjects, 125 mg twice a day for two weeks, versus placebo
Description: A within-subjects trial of 8 weeks duration, involving 17 amnestic MCI (aMCI) subjects and 17 age-matched controls with a low dose treatment of levetiracetam is conducted. During the course of the study, each aMCI subject receives both drug and placebo treatments separately in two periods of two weeks each, with the order of treatments among different aMCI subjects counterbalanced (see FIG. 7). Age-matched control subjects treated with placebo serve as a further control. Cognitive testing and fMRI imaging data are obtained from the subjects after each two week period of drug/placebo treatment. As described above, the drug treatment period is the two weeks preceding Visit 1 or 2 (with the two week period preceding the other Visit being the placebo phase). […] Imaging data are obtained through high-resolution methods developed in the Stark laboratory. Data are collected on a Phillips 3 Tesla scanner (Eindhoven, The Netherlands) equipped with an 8-channel SENSE (Sensitivity Encoding) head coil, located at the F.M. Kirby Research Center for Functional Brain Imaging at the Kennedy Krieger Institute (Baltimore, Md.). […] Group data are analyzed using a two-way Analysis of Variance (ANOVA) with trial types and group as fixed factors, and subject as a random factor nested within group. […]

aMCI subjects [1] = assay: Buschke Selective Reminding Test - Delayed Recall; settings: 125 mg twice a day for two weeks
Description: (§1) A within-subjects trial of 8 weeks duration, involving 17 amnestic MCI (aMCI) subjects and 17 age-matched controls with a low dose treatment of levetiracetam is conducted. During the course of the study, each aMCI subject receives both drug and placebo treatments separately in two periods of two weeks each, with the order of treatments among different aMCI subjects counterbalanced (see FIG. 7). Age-matched control subjects treated with placebo serve as a further control. Cognitive testing and fMRI imaging data are obtained from the subjects after each two week period of drug/placebo treatment.
All participants undergo neuropsychological evaluation at the time of assessment for treatment efficacy (Visits 1 and 2), as well as at the Baseline Visit. The evaluation occurs outside of the scanner and includes the Buschke Selective Reminding Test (Buschke and Fuld, 1974) and the Verbal Paired Associates subtest, the Logical Memory subtest, the Visual Reproduction subtest of the Wechsler Memory Scale-Revised (WMS-R) (Wechsler, 1997), and the Benton Visual Retention Test, as these tasks are particularly sensitive to medial temporal lobe function and early memory problems (Marquis et al., 2002 and Masur et al., 1994). […]

aMCI subjects [2] = assay: Benton Visual Retention Test; settings: 125 mg twice a day for two weeks
Description: as §1
All participants undergo neuropsychological evaluation at the time of assessment for treatment efficacy (Visits 1 and 2), as well as at the Baseline Visit. […]
As described above, the drug treatment period is the two weeks preceding Visit 1 or 2 (with the two week period preceding the other Visit being the placebo phase). For the subjects receiving the drug treatment, half a scored 250 mg tablet of levetiracetam is used to achieve a dose of […], which is approximately 3.6 mg/kg/day (assuming an average adult human weight of 70 kg).

In the case of CC[C@@H](C(N)=O)N1CCCC1=O [levetiracetam, (2S)-2-(2-oxopyrrolidin-1-yl) butanamide], the “DG/CA3 activity during lure stimuli correctly identified as similar” value (DG/CA3) is reported as “reduces DG/CA3 hyper-activity”, the “performance in Buschke Selective Reminding Test - Delayed Recall” value (aMCI subjects [1]) is reported as “fail to rescue performance” and the “performance in Benton Visual Retention Test” value (aMCI subjects [2]) is reported as “fail to rescue performance”.
